# Measurements taken from patent US7598273B2, “Inhibitors of the gastric H+, K+-ATPase with enhanced therapeutic properties” (Auspex Pharmaceuticals, Inc, priority 2005, dated 2009).
# System: pylorus-ligated rats
# Assay: Rat gastric activity, pylorus ligation (antisecretory activity)
# Assay type: in vivo
# Details: PO 30 mg/kg, 30 minutes before ligation, gastric contents collected 4 hours later, Wistar male rats
# Procedure: Compounds of formula (1) according to the present invention were evaluated for possible antisecretory activity in pylorus-ligated rats. […] Wistar derived male rats weighing 210±10 g were fasted overnight. […] Animals were sacrificed 4 hours later and the gastric contents were collected. After centrifugation, the volume of each sample was measured and acidity was determined by titration.
Structure (SMILES),% inhibition relative to vehicle controls: Acidity (μEq/mL) [%],% inhibition relative to vehicle controls: Total Acid Output (μEq/4 hours) [%],% inhibition relative to vehicle controls: Volume (mL/4 hours) [%]
"[2H]c1nc(C([2H])([2H])[S+]([O-])c2nc3cc(OC([2H])([2H])[2H])ccc3[nH]2)c(C([2H])([2H])[2H])c(OC([2H])([2H])[2H])c1C([2H])([2H])[2H] (centres unmarked) [Example 10, d15-5-methoxy-2-(4-methoxy-3,5-dimethyl-pyridin-2-ylmethane-sulfinyl)-1H-benzimidazole]",89,95,55

# System: not given
# Assay: not given
# Details: human, topical or ocular
Structure (SMILES),degradation half-life increased as compared to non-isotopically enriched omeprazole,"increase in the degradation half-life, as compared to the non-isotopically enriched drug [%]"
"[2H]c1nc(C([2H])([2H])[S+]([O-])c2nc3cc(OC([2H])([2H])[2H])ccc3[nH]2)c(C([2H])([2H])[2H])c(OC([2H])([2H])[2H])c1C([2H])([2H])[2H] (centres unmarked) [Example 10, d15-5-methoxy-2-(4-methoxy-3,5-dimethyl-pyridin-2-ylmethane-sulfinyl)-1H-benzimidazole]",20-60%,≥ 10
"[2H]c1nc(C[S+]([O-])c2nc3cc(OC([2H])([2H])[2H])ccc3[nH]2)c(C([2H])([2H])[2H])c(OC([2H])([2H])[2H])c1C([2H])([2H])[2H] (centres unmarked) [Example 11, d13-5-methoxy-2-(4-methoxy-3,5-dimethylpyridin-2-ylmethane-sulfinyl)-1H-benzimidazole]",20-60%,≥ 10
"[2H]c1nc(C[S+]([O-])c2nc3cc(OC([2H])([2H])[2H])ccc3[nH]2)c(C([2H])([2H])[2H])c(OC)c1C([2H])([2H])[2H] (centres unmarked) [Example 13, d10-5-methoxy-2-(4-methoxy-3,5-dimethylpyridin-2-ylmethane-sulfinyl)-1H-benzimidazole]",–,≥ 10
"[2H]c1nc(C([2H])([2H])[S+]([O-])c2nc3cc(OC([2H])([2H])[2H])ccc3[nH]2)c(C([2H])([2H])[2H])c(OC)c1C([2H])([2H])[2H] (centres unmarked) [Example 14, d12-5-methoxy-2-(4-methoxy-3,5-dimethylpyridin-2-ylmethane-sulfinyl)-1H-benzimidazole]",–,≥ 10
"[2H]c1nc(C([2H])([2H])[S+]([O-])c2nc3cc(OC)ccc3[nH]2)c(C([2H])([2H])[2H])c(OC([2H])([2H])[2H])c1C([2H])([2H])[2H] (centres unmarked) [Example 18, d12-5-methoxy-2-(4-methoxy-3,5-dimethylpyridin-2-ylmethane-sulfinyl)-1H-benzimidazole]",–,≥ 10
"[2H]c1nc(C[S+]([O-])c2nc3cc(OC)ccc3[nH]2)c(C([2H])([2H])[2H])c(OC)c1C([2H])([2H])[2H] (centres unmarked) [Example 19, d7-5-methoxy-2-(4-methoxy-3,5-dimethylpyridin-2-ylmethane-sulfinyl)-1H-benzimidazole]",–,≥ 10
"[2H]c1nc(C[S+]([O-])c2nc3cc(OC)ccc3[nH]2)c(C([2H])([2H])[2H])c(OC([2H])([2H])[2H])c1C([2H])([2H])[2H] (centres unmarked) [Example 20, d10-5-methoxy-2-(4-methoxy-3,5-dimethylpyridin-2-ylmethane-sulfinyl)-1H-benzimidazole]",–,≥ 10
"[2H]c1nc(C([2H])([2H])[S+]([O-])c2nc3cc(OC)ccc3[nH]2)c(C([2H])([2H])[2H])c(OC)c1C([2H])([2H])[2H] (centres unmarked) [Example 21, d9-5-methoxy-2-(4-methoxy-3,5-dimethylpyridin-2-ylmethane-sulfinyl)-1H-benzimidazole]",–,≥ 10
"[2H]c1nc(C[S@+]([O-])c2nc3cc(OC([2H])([2H])[2H])ccc3[nH]2)c(C([2H])([2H])[2H])c(OC([2H])([2H])[2H])c1C([2H])([2H])[2H] [Example 39, d13-(S)-5-methoxy-2-(4-methoxy-3,5-dimethylpyridin-2-ylmethane-sulfinyl)-1H-benzimidazole]",20-60%,≥ 10

# Continued, values first:
degradation half-life increased as compared to non-isotopically enriched omeprazole,"increase in the degradation half-life, as compared to the non-isotopically enriched drug [%]",Structure (SMILES)
–,≥ 10,"[2H]C([2H])([2H])Oc1ccc2[nH]c([S+]([O-])C([2H])([2H])c3ncc(C)c(OC([2H])([2H])[2H])c3C)nc2c1 (centres unmarked) [Example 25, d8-5-methoxy-2-(4-methoxy-3,5-dimethylpyridin-2-ylmethane-sulfinyl)-1H-benzimidazole]"
–,≥ 10,"[2H]C([2H])([2H])Oc1ccc2[nH]c([S+]([O-])Cc3ncc(C)c(OC)c3C)nc2c1 (centres unmarked) [Example 26, d3-5-methoxy-2-(4-methoxy-3,5-dimethylpyridin-2-ylmethane-sulfinyl)-1H-benzimidazole]"
–,≥ 10,"[2H]C([2H])([2H])Oc1ccc2[nH]c([S+]([O-])Cc3ncc(C)c(OC([2H])([2H])[2H])c3C)nc2c1 (centres unmarked) [Example 27, d6-5-methoxy-2-(4-methoxy-3,5-dimethylpyridin-2-ylmethane-sulfinyl)-1H-benzimidazole]"
–,≥ 10,"[2H]C([2H])([2H])Oc1ccc2[nH]c([S+]([O-])C([2H])([2H])c3ncc(C)c(OC)c3C)nc2c1 (centres unmarked) [Example 28, d5-5-methoxy-2-(4-methoxy-3,5-dimethylpyridin-2-ylmethane-sulfinyl)-1H-benzimidazole]"
–,≥ 10,"[2H]C([2H])([2H])Oc1c(C)cnc(C([2H])([2H])[S+]([O-])c2nc3cc(OC)ccc3[nH]2)c1C (centres unmarked) [Example 32, d5-5-methoxy-2-(4-methoxy-3,5-dimethylpyridin-2-ylmethane-sulfinyl)-1H-benzimidazole]"
–,≥ 10,"[2H]C([2H])([2H])Oc1c(C)cnc(C[S+]([O-])c2nc3cc(OC)ccc3[nH]2)c1C (centres unmarked) [Example 34, d3-5-methoxy-2-(4-methoxy-3,5-dimethylpyridin-2-ylmethane-sulfinyl)-1H-benzimidazole]"

# System: not given
# Assay: not given
# Details: at steady state, CYP2C19 poor vs extensive metabolizers; cited from earlier work
row,Structure (SMILES),ratio of AUC in Poor metabolizers to AUC in the rest of the population (extensive metabolizers)
1,"COc1ccc2nc([S@@+]([O-])Cc3ncc(C)c(OC)c3C)[nH]c2c1 [esomeprazole, (S)-5-methoxy-2-(4-methoxy-3,5-dimethylpyridin-2-ylmethane-sulfinyl)-1H-benzimidazole]",approximately 2

# Same assay, conditions: human plasma, relative to omeprazole; cited from earlier work
row,Structure (SMILES),half-life in human plasma higher than that of omeprazole [%]
1,"COc1ccc2nc([S@@+]([O-])Cc3ncc(C)c(OC)c3C)[nH]c2c1 [esomeprazole, (S)-5-methoxy-2-(4-methoxy-3,5-dimethylpyridin-2-ylmethane-sulfinyl)-1H-benzimidazole]",20
